Patent US10898547B2, “Method of treatment of breast or colon cancer by administering muscle stimulated myokines” (Unicorn Therapeutics, LLC, priority 2016, dated 2021)

What was measured:
Type in all cases: cell-based
[1] = test system: HT-29; assay: 5′FU dosage determination in HT-29 cells, 96-well plate; details: HT-29, after 48 hrs
[2] = test system: HepG2; assay: Western blot of metabolic markers (pAMPK, pAKT, pACC) in HepG2 cells; parameters: dose or concentration left out as unconfirmed; details: HepG2, sorafenib (FIG. 6A)
[3] = test system: Huh7; assay: WST cellular proliferation assay in Huh7 HCC cells; details: 24-48 hrs, sorafenib 1, 2 and 5 micromolar
[4] = test system: HepG2; assay: WST cellular proliferation assay in HepG2 HCC cells; details: 24-48 hrs, sorafenib 1, 2 and 5 micromolar

O=c1[nH]cc(F)c(=O)[nH]1 [5′FU, 5-fluorouracil]
concentration showing the best effect without suggestion of cytotoxicity [1]: 25 µM

CNC(=O)c1cc(Oc2ccc(NC(=O)Nc3ccc(Cl)c(C(F)(F)F)c3)cc2)ccn1 [sorafenib]
pAMPK expression [2]: increase
cellular proliferation [3]: decrease
cellular proliferation [4]: decrease
